How the values were obtained:
[1] = target: T1, High affinity nerve growth factor receptor (Homo sapiens, UniProt P04629); assay: Inhibition of recombinant His-tagged human TRKA (441 to 796 residues) expressed in baculovirus expression system using 5-FAM-EEPLYWSFPAKKK-CONH2 as substrate preincubated for 1 hr followed by substrate addition in presence of ATP by mobility shift assay
Target sequence in this assay (P04629 whole entry, the tested form may be a part): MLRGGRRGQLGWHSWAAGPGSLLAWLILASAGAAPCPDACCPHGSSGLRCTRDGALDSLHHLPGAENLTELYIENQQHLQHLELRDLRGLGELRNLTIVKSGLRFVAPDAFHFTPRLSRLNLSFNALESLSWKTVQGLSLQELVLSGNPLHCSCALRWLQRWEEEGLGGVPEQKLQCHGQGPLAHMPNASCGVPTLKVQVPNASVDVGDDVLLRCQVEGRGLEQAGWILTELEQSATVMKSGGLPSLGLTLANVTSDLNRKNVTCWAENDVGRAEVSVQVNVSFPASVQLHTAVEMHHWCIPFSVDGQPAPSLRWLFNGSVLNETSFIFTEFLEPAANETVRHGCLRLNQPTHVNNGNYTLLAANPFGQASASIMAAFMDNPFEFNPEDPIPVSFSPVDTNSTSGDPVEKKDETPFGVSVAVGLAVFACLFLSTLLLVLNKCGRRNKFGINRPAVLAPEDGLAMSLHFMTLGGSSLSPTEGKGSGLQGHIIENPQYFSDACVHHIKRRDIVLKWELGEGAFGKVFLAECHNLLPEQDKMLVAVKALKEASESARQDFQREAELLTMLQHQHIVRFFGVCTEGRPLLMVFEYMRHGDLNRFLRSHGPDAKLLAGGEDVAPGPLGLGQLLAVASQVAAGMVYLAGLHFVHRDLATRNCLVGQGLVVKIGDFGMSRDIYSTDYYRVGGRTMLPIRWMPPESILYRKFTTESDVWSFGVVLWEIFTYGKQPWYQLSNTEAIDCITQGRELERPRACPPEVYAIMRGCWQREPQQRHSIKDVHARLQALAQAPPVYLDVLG

[2] = target: T1, High affinity nerve growth factor receptor; assay: Inhibition of recombinant His-tagged human TRKA (441 to 796 residues) expressed in baculovirus expression system at 20 uM using 5-FAM-EEPLYWSFPAKKK-CONH2 as substrate preincubated for 1 hr followed by substrate addition in presence of ATP by mobility shift assay relative to control
Target sequence in this assay (P04629 33-796 limits assumed): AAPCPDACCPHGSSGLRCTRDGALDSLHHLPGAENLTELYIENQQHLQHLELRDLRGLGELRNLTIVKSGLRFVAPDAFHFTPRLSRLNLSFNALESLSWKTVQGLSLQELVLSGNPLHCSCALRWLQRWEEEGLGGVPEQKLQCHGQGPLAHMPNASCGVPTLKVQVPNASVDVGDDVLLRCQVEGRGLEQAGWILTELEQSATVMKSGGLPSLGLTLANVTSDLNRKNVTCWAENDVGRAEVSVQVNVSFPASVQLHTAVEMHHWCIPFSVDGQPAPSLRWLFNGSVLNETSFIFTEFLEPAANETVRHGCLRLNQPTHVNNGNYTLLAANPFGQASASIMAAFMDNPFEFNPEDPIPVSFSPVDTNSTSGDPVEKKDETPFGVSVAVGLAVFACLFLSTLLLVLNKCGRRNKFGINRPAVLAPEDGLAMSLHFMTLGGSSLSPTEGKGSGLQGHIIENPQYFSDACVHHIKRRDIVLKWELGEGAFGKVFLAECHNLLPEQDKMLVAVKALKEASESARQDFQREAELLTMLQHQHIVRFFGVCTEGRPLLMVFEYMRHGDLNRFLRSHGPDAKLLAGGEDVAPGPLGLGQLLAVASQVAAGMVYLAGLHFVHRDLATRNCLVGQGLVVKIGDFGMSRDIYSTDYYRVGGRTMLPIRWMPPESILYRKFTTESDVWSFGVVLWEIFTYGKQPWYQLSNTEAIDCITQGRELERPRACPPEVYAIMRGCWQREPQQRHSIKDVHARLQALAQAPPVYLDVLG

[3] = system: KM12; assay: Cytotoxicity against human KM12 cells assessed as reduction in cell viability incubated for 72 hrs by resazurin based assay; type: functional; conditions: KM12, 72 h

| IC50 [1] | inhibition [2] | SMILES | IC50 [3] |
| --- | --- | --- | --- |
| 200 µM | – | CS(=O)(=O)c1ccc(-c2cc3ncnc(Nc4ccc(CC(=O)Nc5ccc(F)c(Cl)c5)cc4)c3s2)cc1 | – |
| – | 18% | O=C(Cc1ccc(-c2ncnc3ccsc23)cc1)N[C@@H]1CCCC[C@H]1O | > 200 µM |
| – | 18% | COc1ccc(Nc2ncnc3ccsc23)cc1 | 103 µM |

Source: ChEMBL document CHEMBL4813963, “Discovery of pyrazolo-thieno[3,2-d]pyrimidinylamino-phenyl acetamides as type-II pan-tropomyosin receptor kinase (TRK) inhibitors: Design, synthesis, and biological evaluation” (Eur J Med Chem, 2021)
